From patent US5563140A, “Use of 1-(aminoalkyl)-3-(benzyl)-quinoxaline-2-one derivatives for the preparation of neuroprotective compositions” (Phafag Aktiengesellschaft, priority 1991, dated 1996)

Key:
glutamate receptors = experiment: Microiontophoresis at inner hair cell synapse of guinea pig cochlea: glutamate-induced spike activity; format: in vivo, guinea pigs
Description: The effectiveness of the 1-(aminoalkyl)-3-(benzyl)-quinoxaline-2-one derivatives as potential glutamate receptor antagonists was studied in the light of the neurotransmission between the inner hair cells (IHC) and the peripheral dendrites of the afferent neurons in the mammalian cochlea.
(§1) Experiments were performed on adult pigmented guinea pigs (300-700 g) of both sexes, anaesthetized with a combination of Rompun (Bayer, Leverkusen, Germany) and Innovar-Vet (Pitman-Moore, Mundelin, Ill., U.S.A.). Supplementary low doses of pentobarbital (Nembutal, Abbott, Chicago, U.S.A.) were given periodically throughout the experiments. Rectal temperature was maintained within physiological limits. After tracheotomy for artificial respiration, the auditory bulla was approached ventrolaterally and the cochlea was exposed. A small opening was drilled into the cochlea bone over the pigmented stria vascularis and the ligamentum spiale of the third turn.
(§2) The occurrence of phasic activity was used to identify the location precisely, since such activity occurs in the immediate vicinity of the initial postsynaptic structures.
Recordings of extracellular action potentials were obtained using a 2M NaCl-filled barrel of the 5-barrel glass micropipette. […]

[1] = tested on: membrane response to acetylcholine; experiment: Microiontophoresis at inner hair cell synapse of guinea pig cochlea: acetylcholine-induced firing (selectivity); format: in vivo, guinea pigs; details: acetylcholine 60 nA; Caroverine 30 nA, FIG. 3
Description: as §1, §2
Recordings of extracellular action potentials were obtained using a 2M NaCl-filled barrel of the 5-barrel glass micropipette. […] Three other channels of the micropipette contained the solutions to be ejected microiontophoretically with the appropriate anionic and cationic currents: L-glutamic acid (0.5M, pH 3.5, adjusted with HCl); Caroverine-HCl (1-diethylaminoethyl-3-(p-methoxybenzyl)-1,2-dihydro-quinoxaline-2-one, 0.05M, natural pH=6.0). […]

tinnitus = experiment: Pilot clinical study in patients suffering from tinnitus; format: in vivo; details: 70-160 mg
Description: The neuroprotective effect of Caroverine was tested in a clinical study with patients who suffered from tinnitus. The etiology of tinnitus can be very different in different patients. One of the most frequent tinnitus type is, however, the cochlear tinnitus. If a functional disturbance between the IHC and the peripheral dendrites of the […] neurons is deemed to be the initiating, etiological factor, then this is called a "cochlear synaptic tinnitus". A neuroprotective pharmaceutical like Caroverine should therefore have a positive effect on the cochlear synaptic tinnitus.
In a pilot study Caroverine was applied to 72 patients suffering from tinnitus. Caroverine was applied intravenously (160 mg/100 ml physiological NaCl-solution). The real dosage depended on the tinnitus reduction perceived by the individual patient and varied between 70 and 160 mg.
The effectiveness of Caroverine was measured by a subjective rating and tinnitus-matching before and after the infusion of the drug.

central nervous system = experiment: Double-blind, placebo-controlled clinical study, EEG-mapping; format: in vivo, persons; details: 40 mg or 80 mg, orally or intravenously
Description: In a double-blind, placebo-controlled clinical study on a group of 15 persons, the cerebral effect of Caroverine was tested by means of electro-encephalogram (EEG)-mapping. The 15 caucasian probands were 7 females and 8 males between 20 and 35 years old (average 27 years). The weight ranged between 53 and 84 kg (average weight: 69 kg) and the height varied between 162 to 186 cm (average height: 175 cm).
Doses of 40 mg or 80 mg of Caroverine or placebo were administered either orally or intravenously for random sampling to the persons in weekly intervals. EEG-tracings as well as recordings of pulse, blood pressure and side effects were carried out 0, 1, 2, 4, 6 and 8 hours after medication.

[2] = Side-effects on application, also in high doses; format: in vivo; details: Caroverine and its salts
Excerpt: Thus, it is experimentally established that 1-(aminoalkyl)-3-(benzyl)-quinoxaline-2-one derivatives are a potent, reversible and selective class of new glutamate receptor antagonists on the excitatory […] synapses of the cochlear inner hair cells.

N[C@@H](CCC(=O)O)C(=O)O [Glutamate, L-glutamic acid]
effect on firing rate of fibers in the synaptic region of IHC (glutamate receptors; agonist alone, n=29 out of 31 fibers): enhances the firing rate

CCN(CC)CCn1c(=O)c(Cc2ccc(OC)cc2)nc2ccccc21 [Caroverine]
effect on acetylcholine-induced firing rate [1]: no effect | patients noting a tinnitus reduction of at least 50% in absolute value (tinnitus; immediately after intravenous infusion, 72 patients): 66.7% | side-effects (tinnitus; intravenous infusion): No sincere side-effects | time of maximum effect after medication (central nervous system): around 1 hour | side-effects [2]: no critical side-effects

CCN(CC)CCn1c(=O)c(Cc2ccc(O)cc2)nc2ccccc21 [1-diethylaminoethyl-3-(p-hydroxy)-1,2-dihydroquinoxaline-2-one]
effectiveness as glutamate receptor antagonist (glutamate receptors; cochlear inner hair cell synapses): effective
